Data: publication PMC11012124, “Synthesis of Novel Triazine-Based Chalcones and 8,9-dihydro-7H-pyrimido[4,5-b][1,4]diazepines as Potential Leads in the Search of Anticancer, Antibacterial and Antifungal Agents” (International Journal of Molecular Sciences, 2024)

Columns and labels:
LOX IMVI = test: cells; conditions: Homo sapiens, 48 h
UACC-62 = test: cells; conditions: Homo sapiens, UACC-62, 48 h
OVCAR-4 = test: cells; conditions: Homo sapiens, OVCAR-4, 48 h
HL-60(TB) = test: cells; conditions: Homo sapiens, HL-60, 48 h
T-47D = test: cells; conditions: Homo sapiens, T47D, 48 h
RPMI-8226 = test: cells; conditions: Homo sapiens, RPMI-8226, 48 h
U251 = test: cells; conditions: Homo sapiens, U-251, 48 h
CCRF-CEM = test: cells; conditions: Homo sapiens, 48 h
EKVX = test: cells; conditions: Homo sapiens, 48 h
BT-549 = test: cells; conditions: Homo sapiens, BT-549, 48 h
MALME-3M = test: cells; conditions: Homo sapiens, 48 h
M14 = test: cells; conditions: Homo sapiens, M14, 48 h
SN12C = test: cells; conditions: Homo sapiens, 48 h
SF-268 = test: cells; conditions: Homo sapiens, SF-268, 48 h
MDA-MB-231/ATCC = test: cells; conditions: Homo sapiens, MDA-MB-231, 48 h
UACC-257 = test: cells; conditions: Homo sapiens, UACC-257, 48 h
60 cancer cell lines = test: NCI-60 one-dose screen (10 μM); format: cell-based; conditions: Homo sapiens; one dose of 10 μM, mean over 60 cancer cell lines; read-out: Mean Growth Percent (MGP)
From the text: Additionally, the mean of the growth percentages (MGP) of each compound against all the 60 cancer cell lines is also reported, which is used as one of the selection criteria to continue with tests at five concentration doses.

HCT-116 = test: cells; conditions: Homo sapiens, HCT-116, 48 h
NCI-H322M = test: cells; conditions: Homo sapiens, 48 h
SF-539 = test: cells; conditions: Homo sapiens, SF-539, 48 h
MCF7 = test: cells; conditions: Homo sapiens, MCF7, 48 h
HS 578T = test: cells; conditions: Homo sapiens, 48 h
HT29 = test: cells; conditions: Homo sapiens, HT-29, 48 h
[1] = Hemolytic activity, spectrophotometric; format: cell-based, human; conditions: human, human red blood cells (huRBC), 5% hematocrit, 200 μg/mL, 37 °C
OVCAR-3 = test: cells; conditions: Homo sapiens, OVCAR-3, 48 h
HOP-62 = test: cells; conditions: Homo sapiens, HOP-62, 48 h
SF-295 = test: cells; conditions: Homo sapiens, SF-295, 48 h
MDA-MB-435 = test: cells; conditions: Homo sapiens, MDA-MB-435, 48 h
DU-145 = test: cells; conditions: Homo sapiens, DU-145, 48 h
PC-3 = test: cells; conditions: Homo sapiens, PC-3, 48 h
A498 = test: cells; conditions: Homo sapiens, A498, 48 h
OVCAR-5 = test: cells; conditions: Homo sapiens, OVCAR-5, 48 h
OVCAR-8 = test: cells; conditions: Homo sapiens, OVCAR-8, 48 h
ACHN = test: cells; conditions: Homo sapiens, 48 h
NCI-H226 = test: cells; conditions: Homo sapiens, NCI-H226, 48 h
COLO 205 = test: cells; conditions: Homo sapiens, COLO 205, 48 h
UO-31 = test: cells; conditions: Homo sapiens, UO-31, 48 h
MOLT-4 = test: cells; conditions: Homo sapiens, MOLT-4, 48 h

Question: For `Nc1nc(N)c2c(n1)NC(c1ccc(C(F)(F)F)cc1)CC(c1ccc(Nc3nc(NCCO)nc(Nc4ccc(Cl)cc4)n3)cc1)=N2` (centres unmarked) [33g], which GI50 (LOX IMVI) is on record?
Answer: Its GI50 is 1.77 µM.

Question: What about the GI50 (UACC-62) of the same compound?
Answer: The GI50 was 1.68 µM.

Question: What about the GI50 (OVCAR-4) of the same compound?
Answer: The GI50 was 2.23 µM.

Question: What about the CC50 (OVCAR-4; read-out: LC50) of the same compound?
Answer: Its CC50 is greater than 100 µM.

Question: What about the GI50 (HL-60(TB)) of the same compound?
Answer: Its GI50 is 1.28 µM.

Question: What about the CC50 (HL-60(TB); read-out: LC50) of the same compound?
Answer: Its CC50 is greater than 100 µM.

Question: And the GI50 (T-47D)?
Answer: The GI50 was 1.55 µM.

Question: What about the CC50 (T-47D; read-out: LC50) of the same compound?
Answer: The CC50 was 8.75 µM.

Question: What about the GI50 (RPMI-8226) of the same compound?
Answer: Its GI50 is 1.51 µM.

Question: What about the CC50 (RPMI-8226; read-out: LC50) of the same compound?
Answer: Its CC50 is greater than 100 µM.

Question: And the GI50 (U251; U251, 48 h)?
Answer: The GI50 was 1.24 µM.

Question: What about the CC50 (U251; read-out: LC50) of the same compound?
Answer: Its CC50 is 5.16 µM.

Question: And the GI50 (CCRF-CEM)?
Answer: The GI50 was 1.23 µM.

Question: What about the CC50 (CCRF-CEM; read-out: LC50) of the same compound?
Answer: The CC50 was greater than 100 µM.

Question: What about the GI50 (EKVX) of the same compound?
Answer: The GI50 was 1.52 µM.

Question: And the CC50 (EKVX; read-out: LC50)?
Answer: The CC50 was 5.75 µM.

Question: What about the GI50 (BT-549) of the same compound?
Answer: Its GI50 is 1.57 µM.

Question: And the CC50 (BT-549; read-out: LC50)?
Answer: The CC50 was 6.34 µM.

Question: And the GI50 (MALME-3M)?
Answer: The GI50 was 1.74 µM.

Question: And the GI50 (M14)?
Answer: Its GI50 is 1.64 µM.

Question: What about the CC50 (M14; read-out: LC50) of the same compound?
Answer: Its CC50 is 5.72 µM.

Question: And the GI50 (SN12C)?
Answer: The GI50 was 1.76 µM.

Question: And the CC50 (SN12C; read-out: LC50)?
Answer: Its CC50 is 6.35 µM.

Question: And the GI50 (SF-268)?
Answer: Its GI50 is 1.66 µM.

Question: What about the CC50 (SF-268; read-out: LC50) of the same compound?
Answer: Its CC50 is 7.27 µM.

Question: What about the GI50 (MDA-MB-231/ATCC) of the same compound?
Answer: The GI50 was 1.88 µM.

Question: And the GI50 (UACC-257)?
Answer: The GI50 was 1.75 µM.

Question: What about the CC50 (UACC-257; read-out: LC50) of the same compound?
Answer: The CC50 was 5.82 µM.

Question: What about the activity at 10 µM (60 cancer cell lines) of the same compound?
Answer: Its activity at 10 µM is -44.8%.

Question: And the GI50 (HCT-116)?
Answer: Its GI50 is 1.05 µM.

Question: And the CC50 (HCT-116; read-out: LC50)?
Answer: Its CC50 is 5.54 µM.

Question: And the GI50 (NCI-H322M)?
Answer: The GI50 was 1.66 µM.

Question: What about the CC50 (NCI-H322M; read-out: LC50) of the same compound?
Answer: The CC50 was 5.63 µM.

Question: What about the GI50 (SF-539) of the same compound?
Answer: The GI50 was 1.56 µM.

Question: And the CC50 (SF-539; read-out: LC50, SF-539, 48 h)?
Answer: The CC50 was 5.68 µM.

Question: And the GI50 (MCF7)?
Answer: Its GI50 is 1.26 µM.

Question: And the GI50 (HS 578T)?
Answer: The GI50 was 2.55 µM.

Question: What about the CC50 (HS 578T; read-out: LC50) of the same compound?
Answer: The CC50 was greater than 100 µM.

Question: What about the GI50 (HT29) of the same compound?
Answer: The GI50 was 1.36 µM.

Question: What about the CC50 (HT29; read-out: LC50) of the same compound?
Answer: The CC50 was 6.54 µM.

Question: What about the hemolysis at 24 h, 200 µg/mL [1] of the same compound?
Answer: The hemolysis at 24 h, 200 µg/mL was 22%.

Question: And the GI50 (OVCAR-3)?
Answer: Its GI50 is 1.32 µM.

Question: What about the CC50 (OVCAR-3; read-out: LC50) of the same compound?
Answer: Its CC50 is 6.57 µM.

Question: And the GI50 (HOP-62)?
Answer: The GI50 was 1.63 µM.

Question: What about the CC50 (HOP-62; read-out: LC50) of the same compound?
Answer: The CC50 was 6.14 µM.

Question: And the GI50 (SF-295)?
Answer: Its GI50 is 1.79 µM.

Question: And the CC50 (SF-295; read-out: LC50)?
Answer: The CC50 was 6.14 µM.

Question: What about the GI50 (MDA-MB-435) of the same compound?
Answer: Its GI50 is 1.4 µM.

Question: And the CC50 (MDA-MB-435; read-out: LC50)?
Answer: The CC50 was 5.3 µM.

Question: And the GI50 (DU-145)?
Answer: The GI50 was 1.51 µM.

Question: And the CC50 (DU-145; read-out: LC50)?
Answer: The CC50 was 5.33 µM.

Question: What about the GI50 (PC-3) of the same compound?
Answer: The GI50 was 1.54 µM.

Question: And the GI50 (A498)?
Answer: Its GI50 is 1.56 µM.

Question: And the CC50 (A498; read-out: LC50)?
Answer: The CC50 was 5.4 µM.

Question: And the GI50 (OVCAR-5)?
Answer: The GI50 was 1.6 µM.

Question: What about the CC50 (OVCAR-5; read-out: LC50) of the same compound?
Answer: Its CC50 is 5.64 µM.

Question: And the GI50 (OVCAR-8)?
Answer: Its GI50 is 1.5 µM.

Question: And the CC50 (OVCAR-8; read-out: LC50)?
Answer: Its CC50 is 5.75 µM.

Question: And the GI50 (ACHN)?
Answer: The GI50 was 1.5 µM.

Question: And the CC50 (ACHN; read-out: LC50)?
Answer: Its CC50 is 5.31 µM.

Question: What about the GI50 (NCI-H226) of the same compound?
Answer: Its GI50 is 1.84 µM.

Question: And the CC50 (NCI-H226; read-out: LC50)?
Answer: The CC50 was 8.31 µM.

Question: And the GI50 (COLO 205)?
Answer: The GI50 was 1.33 µM.

Question: And the CC50 (COLO 205; read-out: LC50)?
Answer: The CC50 was 5.25 µM.

Question: What about the GI50 (UO-31) of the same compound?
Answer: Its GI50 is 1.43 µM.

Question: What about the CC50 (UO-31; read-out: LC50) of the same compound?
Answer: Its CC50 is 5.3 µM.

Question: And the GI50 (MOLT-4)?
Answer: The GI50 was 0.888 µM.

Question: And the CC50 (MOLT-4; read-out: LC50)?
Answer: The CC50 was greater than 100 µM.
